Results reported in ChEMBL document CHEMBL1157539, “Thousands of chemical starting points for antimalarial lead identification” (Nature, 2010).

Each compound was assayed on Plasmodium falciparum (assay: GSK_TCMDC: Inhibition of Plasmodium falciparum 3D7 in whole erythrocytes, using parasite LDH activity as an index of growth.). Details: not given.
Type: functional, organism-based

SMILES	XC50
COC(=O)c1ccc(CC(C)NCC(O)c2cccc(C(F)(F)F)c2)cc1 (configuration not stated)	974 nM

Same assay, conditions: Plasmodium falciparum, 3D7

SMILES	XC50
Fc1ccc2[nH]c(-c3ccc(-c4ccc(CN5CCN(CCN6CCOCC6)CC5)cc4)s3)nc2c1	147 nM
COc1ccc2ncc(F)c(CCN3CCC(NCc4cc(F)c5c(c4)OCCO5)CC3)c2n1	346 nM
CCOc1cc(C(=O)NC2CC(C)(C)NC(C)(C)C2)ccc1-c1nc2cc(Cl)ccc2[nH]1	992 nM
Cc1nc(C)c(CC(=O)Nc2ccc(-c3cccc(-c4nc5cccc(C)c5[nH]4)c3)cc2)s1	596 nM
CC(=O)Nc1ccc(C(=O)Nc2ccc(-c3cccc(-c4nc5ccccc5[nH]4)c3)cc2)cn1	238 nM
Cc1ccc(NC(=O)c2cn(-c3ccccc3)nc2-c2ccc(F)cc2)cc1[N+](=O)[O-]	1000 nM
CN1CC[C@@H](Oc2cc(NC(=O)Nc3ccccc3Br)ccc2Cl)C1	1100 nM
Cc1ccc2c(NC(=O)Nc3ccc(N(C)C)cc3)cc(C)nc2c1	820 nM
Cc1ccc2c(=NN=Cc3ccc(N(C)C)cc3)cc(C)[nH]c2c1	881 nM
CCOc1ccc(C(C)NC(=O)c2cc(Cl)ccc2OC)cc1OCC (configuration not stated)	971 nM
CC(=O)Nc1ccc(C(=O)Nc2cccc(-c3cccc(-c4nc5cc(C(F)(F)F)ccc5[nH]4)c3)c2)cn1	73.7 nM
CCOC(=O)Cc1nc(C(=O)OCC)c(N)[nH]1	647 nM
NCCCNc1ccc(-c2ccc(NC(=O)Nc3cc(C(F)(F)F)ccc3F)cc2)cn1	837 nM
C=CCc1cccc(C)c1OCCCON1C(=N)N=C(N)NC1(C)C	3.2 nM
CC(C)(C)c1ccc(Cc2cccc3nc(N)nc(N)c23)cc1	834 nM
COc1cccc(CN(C(=O)Nc2ccccc2F)[C@H]2C[C@H]3C(=O)Nc4cc(F)ccc4C(=O)N3C2)c1	841 nM
CC(C)(C)c1ccc(CNC(=O)c2ccc(CNC3CCC(N)CC3)s2)cc1 (configuration not stated)	531 nM
O=C(Nc1cccc(-c2csc(NC(=O)c3ccc4ccccc4c3)n2)c1)c1ccc2ccccc2c1	711 nM
CS(=O)(=O)N(c1cccc(F)c1)c1cc(C(=O)N[C@@H](Cc2ccccc2)[C@H](O)CNCc2cccc(C(F)(F)F)c2)cc(N2CCCC2=O)c1	910 nM
CC(O)C1CCCCN1C(=O)c1ccc(-c2ccc(-c3nc4ccccc4[nH]3)s2)cc1 (configuration not stated)	966 nM
Cc1ccc2[nH]c(C)c(Br)c(=O)c2c1	812 nM
CCOC(=O)N/N=C/[C@H](CCc1ccccc1)NC(=O)[C@H](CC(C)C)NC(=O)c1cc2cccc(OC)c2o1	880 nM
CN(CCN)Cc1cccc(-c2cccc(-c3nc4cc(F)ccc4[nH]3)c2)c1	785 nM
CC1CCC2(CC1)N=C(N)N=C(N)N2OCc1cc2ccccc2c2ccccc12 (configuration not stated)	243 nM

SMILES	XC50
O=C(NCC1CCC(CNCCc2ccccc2)CC1)Nc1ccc(Cl)c(Cl)c1 (configuration not stated)	745 nM
COc1cc(Cc2cnc(N)nc2N)cc(OCc2cccc(C(=O)O)c2)c1OC	835 nM
CCN(CC)CCNc1ccnc2ccc3ccccc3c12	219 nM
CCCCCCOc1ccc(C(=O)N[C@H]2CCN(CCCCCNC(=O)/C=C/c3ccc(Cl)c(Cl)c3)C2)cc1	695 nM
COc1ccc(CCNC(=O)c2ccc(-n3cc(NC(=O)c4cccnc4)cn3)cc2)cc1OC	1070 nM
COc1cc(F)c2ncc(Cl)c(CCN3CCC(NCc4ccc5c(c4)NC(=O)CO5)CC3)c2c1	227 nM
OCC1CCN(Cc2ccc(-c3ccc(-c4nc5cc(F)ccc5[nH]4)cc3)cc2)CC1	845 nM
COc1ccc2nc(C)cc(N/N=C/c3ccccc3[N+](=O)[O-])c2c1	177 nM
COc1cc(OC)c(NC(=O)C2c3ccccc3C(=O)N(CC(C)C)C2c2cccs2)cc1Cl (configuration not stated)	46.4 nM
CCCC(=O)Nc1ccc(Nc2nc(C)cc(N3CCCC3)n2)cc1	1490 nM
CCN(C)CCCn1c(N(C)C)nc2cc(-n3cnc4cc(-c5ccc(Cl)cc5)sc4c3=O)ccc21	1090 nM
Cc1nc2c(c(O)c1Cl)-c1ccc(Oc3cccc(C(F)(F)F)c3)cc1C2=O	37.9 nM
Nc1nc(N)c2c(ccc3c2ccn3C2C=CCCC2)n1 (configuration not stated)	132 nM
COc1ccc(CCN(C)CCCOc2ccc(NC(=O)c3cccc4c(=O)c5ccccc5[nH]c34)cc2)cc1OC	912 nM
Cc1csc(-c2ccc3[nH]cc(C4=CCN(C)CC4)c3c2)n1	754 nM
COc1ccc(COc2cc(NCCCN)nc3ccccc23)cc1	1280 nM
C=C[C@H]1CN(CCCCCCC)CC[C@H]1C[C@@H](Cc1ccnc2ccc(OC)cc12)OC(=O)[C@](OC)(c1ccccc1)C(F)(F)F	876 nM
C=C[C@H]1CN2CC[C@H]1C[C@@H]2[C@@H](O)c1ccnc2ccccc12 [CINCHONINE]	766 nM
COc1ccc2c(c1CCNCCCCNCCc1c(OC)ccc3c1CCCC3)CCCC2	376 nM
Cc1ccc(Cc2cccc3nc(N)nc(N)c23)cc1	1150 nM
COC(=O)c1ccccc1N1CCN(CCCCNC(=O)c2ccc(NC(=O)c3cc(Cl)cc(Cl)c3)cc2)CC1	558 nM
O=C(c1ccc(Cl)cc1)N1CCOC(CCN2CCC(c3ccccc3)CC2)(c2ccc(Cl)c(Cl)c2)C1 (configuration not stated)	238 nM
CCN(CC)CCOc1ccc(NC(=O)c2oc3ccccc3c2C=Cc2ccccc2)cc1	223 nM
O=C(NC1CCC(N2CCN(c3cccc(C(F)(F)F)c3)CC2)CC1)c1cc2ccccc2[nH]1 (configuration not stated)	723 nM

SMILES	XC50
O=C(Nc1cccc(-c2nn3ncccc3c2-c2ccnc(Nc3cccc(-c4cnco4)c3)n2)c1)c1c(F)cccc1F	166 nM
O=C(/C=C/c1c[nH]c2ccccc12)NCCCCCN1CCC(c2c[nH]c3ccccc23)CC1	932 nM
c1ccc2c(NCCCCCCNc3c4ccccc4nc4ccccc34)c3ccccc3nc2c1	753 nM
NC(=O)C1CCN(Cc2ccc(-c3ccc(-c4nc5cc(C(F)(F)F)ccc5[nH]4)s3)cc2)CC1	540 nM
CCN(CC)S(=O)(=O)c1ccc(Cl)c(C(=O)Nc2ccc3nc(C)sc3c2)c1	798 nM
Cc1[nH]c(C)c(-c2ccc(-c3ccc(C(F)(F)F)cc3C(F)(F)F)nc2)c(=O)c1Br	187 nM
CN(Cc1cccc(O)c1)C1CCN(c2cc(NC(=O)c3cccc(F)c3)ccn2)CC1	847 nM
O=C(Cc1cc(=O)oc2cc(O)ccc12)NC1CCC(CN2CCC(c3c[nH]c4ccccc34)CC2)CC1 (configuration not stated)	1130 nM
Cc1ccc(NC(=O)c2ccc3ncccc3c2)cc1OC1CCN(CCC(C)C)CC1	694 nM
COc1cccc(-c2csc(C(=O)NCC3CCN(Cc4ccc(C(C)(C)C)cc4)C3)c2)c1 (configuration not stated)	1180 nM
COc1cccc(CCc2c(CCNCCCCCCNCCc3ccccc3)ccc(OC)c2OC)c1	721 nM
COc1ccc(C2CCN(CCCNC(=O)c3ccc(NC(=O)c4ccc(Cl)cc4)cc3)CC2)c(OC)c1	763 nM
CC(=O)c1c[nH]c2ccc(/C=C/C(=O)NC3CCC(CCN4CCc5ccc(C#N)cc5CC4)CC3)cc12 (configuration not stated)	496 nM
c1ccc(C2CCN(Cc3ccc(-c4c[nH]c5nc(NC6CCCC6)ncc45)cc3)CC2)cc1	1010 nM
O=C(COc1cnc2ccccc2n1)Nc1ccccc1Sc1ccc(Cl)cc1	728 nM
COc1ccccc1C(=O)C1CCCN(C(=O)c2ccccc2C(F)(F)F)C1 (configuration not stated)	602 nM
C=C1N(C)c2cc([N+](=O)[O-])c(N)cc2C1(C)C	486 nM
Cc1ccc(Cn2cnc3cc(C(=O)Nc4ccc(-c5cccc(CN(C)C)c5)cc4)ccc3c2=O)o1	625 nM
O=C(NC1CC1)c1cnc(N2CCC(Oc3ccc(Cl)cc3)CC2)c(Cl)c1	1090 nM
CCCC1N=C(N)N=C(N)N1c1ccc(CC)cc1 (configuration not stated)	66.9 nM
O=[N+]([O-])c1ccc(-n2nc(-c3cccnc3)n(Cc3ccco3)c2=S)c(Cl)c1	200 nM
Cc1nc(-c2ccc(C#N)cc2)sc1C(=O)NCCCCN1CCC(c2ccc3c(c2OCCO)CCCC3)CC1	850 nM
COc1ccc(NC(=O)/C=C/c2ccccc2Cl)cc1OCCN1CCC(NC2CC2)CC1	842 nM
COc1ccc(OCCCN2CCN(CC(c3ccc(F)cc3)N3CCN(C(C)C)CC3)CC2)c2ccccc12 (configuration not stated)	650 nM

SMILES	XC50
O=C(Nc1ccc([N+](=O)[O-])cc1)Nc1nc2ccc(Cl)cc2s1	837 nM
COc1ccc(-c2ccc(S(=O)(=O)Nc3cc4c(cc3OC(C)C)CCNCC4)cc2)cc1	969 nM
O=C(NCCSCc1c(F)cccc1Cl)c1cnc2c(c1)nc(-c1c[nH]c(-c3ccccc3)n1)n2CCc1c[nH]cn1	807 nM
CN(C)c1ccc(CN2CCC(NC(=O)c3ccc(-c4cccc(Cl)c4)s3)CC2)cc1	924 nM
O=C(Nc1ccc2c(ccn2C2CCCN(Cc3cc(F)cc(F)c3F)CC2)c1)c1ccco1 (configuration not stated)	651 nM
COC(=O)c1ccc(CC(C)NCC(O)c2cccc(C(F)(F)F)c2)cc1 (configuration not stated)	1150 nM
CC(C)NCc1cccc(-c2ccc(-c3nc4ccccc4[nH]3)cc2)c1	761 nM
COc1ccc(CN(C)CC(O)COc2ccc(NC(=O)c3cccc4c(=O)c5cccc(OC)c5[nH]c34)cc2)cc1OC (configuration not stated)	780 nM
CCCCCCCCn1c2c(c(=N)c3c1CCC3)CCC2	222 nM
O=C1C(=Cc2c(O)ccc3ccccc23)SC(=NCc2ccccc2)N1Cc1ccccc1	155 nM
CCCCCCCN1CC[C@@H](CCCc2ccnc3ccc(OCCCCNC(N)=O)cc23)[C@@H](CC)C1	835 nM
Cc1cccc2nc(-c3ccc(-c4cccc(NC(=O)Nc5ccc(Cl)cc5)c4)s3)[nH]c12	517 nM
Cc1ccc2[nH]c3c(c2c1)CC(C(=O)NCCC(C)C)NC31CCN(Cc2ccccc2)CC1 (configuration not stated)	932 nM
COc1ccc(CNCc2cccc(-c3ccc(-c4nc5cccc(C)c5[nH]4)s3)c2)cc1	263 nM
O=C(Nc1ccc(F)cc1)NC1CCN(CCCCCNC(=O)C2CC2c2ccc(Cl)c(Cl)c2)CC1 (configuration not stated)	987 nM
COC(=O)c1cccc(CNCc2cccc(-c3ccc(-c4nc5ccccc5[nH]4)s3)c2)c1	491 nM
CN1CCC(NCc2ccc(-c3cccc(S(=O)(=O)NCc4ccccc4)c3)cc2)CC1	324 nM
Cc1cc(N2CCN(CC3CCCCC3)CC2)nc(Nc2ccc(Br)cc2)n1	1090 nM
NS(=O)(=O)c1cccc(-c2ccc3nccc(-c4cccc(S(N)(=O)=O)c4)c3c2)c1	1270 nM
COc1cccc(CNCC(C)(C)c2nc(-c3ccc(Cl)c(O)c3)c(-c3ccncc3)[nH]2)c1	693 nM
CN(C)C1CCN(CC#Cc2cc3ncnc(Nc4ccc(OCc5cccc(F)c5)c(Cl)c4)c3s2)CC1	887 nM
CN(CCN(C)C(=O)NCc1ccccc1)C(=O)NCc1ccccc1	930 nM
O=c1cc(NCCCNCc2cc(Cl)cc(Cl)c2OCc2ccccc2)[nH]c2ccccc12	1030 nM
Cc1cccc2nc(-c3ccc(-c4cccc(CNCc5ccccc5)c4)cc3)[nH]c12	246 nM
